Results reported in patent US20260248831A1, “NON-TUBERCULOSIS MYCOBACTERIA INFECTION TREATMENT” (AN2 Therapeutics, Inc., priority 2021, published 2026).
Where a name gives a salt, the structure may show the parent alone.

How the values were obtained:
NTM strains = assay: Checkerboard synergy testing, summary over all strains tested; format: cell-based, nontuberculous mycobacteria; details: clarithromycin, ethambutol, rifabutin, amikacin, bedaquiline
[1] = test system: M. intracellulare 20-S-13; assay: Checkerboard antibacterial synergy testing of EBO pairwise combinations; format: cell-based; details: M. intracellulare 20-S-13, clarithromycin resistant strain
Description: Frozen stocks of the drugs were prepared at 5 or 2 mg/ml and frozen in aliquots at −20° C. On the day of the experiment the stocks were thawed and diluted to the appropriate concentration. Middlebrook 7H9 broth and agar, CA-MH agar and Middlebrook OADC were all purchased from Becton-Dickinson and Company (Sparks, MD).
M. avium 2285R (Verma et al. Microbiol (2019) 10: 693) and M intracellulare DNA000111 were obtained from Diane Ordway (Colorado State University, Fort Collins, CO). M. chimaera 20-S-05 and the macrolide/bedaquiline-resistant M. intracellulare 20-S-13 isolate were obtained from Barbara Brown-Elliott (Mycobacteria/Nocardia Research Laboratory, University of Texas Health Science Center, Tyler Tx). […]
The checkerboard methodology was used to test for synergy and antagonism using Middlebrook 7H9+5% OADC (Dubos et al. Am Rev Tuberc (1947) 56:334-45) as the microbiology growth media. […] Synergistic or antagonistic activity was determined using the sum of the fractional inhibitory concentration (ΣFIC) index. The FTC index is calculated as the sum of FTC A+FTC B, where FTC A is the MIC of drug A in the combination of drugs A and B divided by the MIC of drug A alone, plus the MIC of drug B in the combination of drugs A and B divided by the MIC of drug B alone. […]

MAC strains = assay: Checkerboard synergy testing, summary over the MAC strains tested; format: cell-based, Mycobacterium avium complex; details: out of a total of 5 MAC strains tested
[2] = in vivo; cited from earlier work

NC[C@H]1OB(O)c2c(OCCCO)cccc21 [EBO, epetraborole hydrochloride]
Antagonism of EBO activity by second drug (NTM strains): not antagonized

CC[C@@H](CO)NCCN[C@@H](CC)CO [EMB, Ethambutol]
Interaction between ethambutol and EBO (in words) [1]: indifference
Synergy/additivity with EBO, number of strains (MAC strains): synergy was observed with 2 strains and additivity with an additional 2 strains

NC[C@H]1OB(O)c2c(OCCCO)cccc21 [epetraborole, Epetraborole]
Course of hematological abnormalities [2]: return to baseline values after discontinuation of epetraborole
RBC parameters (including hemoglobin, RBCs, and reticulocyte counts) [2]: Decreases in RBC parameters
